The text below walks through data of patent US8729269B2, “Substituted piperidino phenyloxazolidinones having antimicrobial activity with improved in vivo efficacy” (Wockhardt Limited, priority 2003, dated 2014).

The subject of assay [1] is Streptococcus pyogenes 801 (SPY 801). As to the kind of experiment: Minimum Inhibitory Concentration (MIC) determination, agar with 5% sheep blood. The class given is cell-based. Conditions: Mueller Hinton agar containing 5% sheep blood. The method, then: (§1) Overnight grown cultures of Methicilin resistant Staphylococcus aureus 32 (MRSA 32), Methicilin resistant Staphylococcus epidermidis 118 (MRSE 118), Vancomycin resistant enterococci 303 (VRE 303) in Tryptic Soya broth were diluted in Mueller Hinton Broth to give optical density matching with MacFarland tube 0.5 standard. Cultures were further diluted 1:10 in Mueller Hinton broth. Using Denley's multipoint inoculator, 10^4 cells were deposited on Mueller Hinton agar (Difco) containing range of 2 fold dilutions of test compounds. These plates were incubated for 24 hrs at 35° C. and MIC results recorded. MIC is defined as minimum drug concentration that inhibits test organisms. For determining MIC of test compounds against Streptococcus pneumoniae 49619 (SPN 49619) and Streptococcus pyogenes 801 (SPY 801), Mueller Hinton agar containing 5% sheep blood was employed.

Assay [2] concerns Streptococcus pneumoniae 49619 (SPN 49619). The assay is described as above. The class given is cell-based. Conditions: Mueller Hinton agar containing 5% sheep blood. The method, then: as §1
Assay [3] deals with methicillin resistant Staphylococcus aureus strain MRSA 32. As to the kind of experiment: Murine Assay Procedure (in vivo efficacy, MRSA 32 infection). The conditions noted are these: swiss mice infected intraperitoneally with MRSA 32, oral gavage 1 h after infection, repeat dose 3 hrs later, percentage survival on Day 7. The method, then: Oxazolidinone new chemical entities (NCEs) were evaluated for their in vivo efficacy in a murine infection caused by multi-drug resistant, methicillin resistant Staphylococcus aureus strain, referred to as MRSA 32, a clinical isolate obtained from a hospitalized patient. The procedure used for the murine assay is as follows:
Four weeks old swiss mice of 18-22 gm body weight were infected with MRSA 32 strain suspended in 5% Hog gastric mucin. The infecting dose of bacteria was set at 1-2×10^8 CFU/animal. The infecting dose was administered in 0.5 ml volume injected into peritonial cavity of mice. The treatment with oxazolidinone NCEs was started one hour after infection by administering 100-200 μl of the suspensions of oxazolidinone compounds in 5% Tween 80 by oral gavage. A repeat dose was similarly administered 3 hrs later. Each oxazolidinone NCE was tested at 2-3 different dosages in the range of 2.5 mg/kg to 20 mg/kg. In each dose group 6 mice were included. As an infection control group 12 mice were infected with MRSA 32 strain without giving any treatment. For compounds affording protection of MRSA infected mice, ED50 dosages were calculated on the basis of percentage survival on Day 7 after infection.

Assay [4] deals with Methicilin resistant Staphylococcus epidermidis 118 (MRSE 118). Put plainly: Minimum Inhibitory Concentration (MIC) determination, agar dilution. It is filed as cell-based. The conditions noted are these: Mueller Hinton agar, 24 hrs at 35° C. The method, then: as §1
Background: In agar dilution, organisms are placed on agar that contains the substance at set levels.

For assay [5], the system named is Methicilin resistant Staphylococcus aureus 32 (MRSA 32). The description is as above. Conditions: Mueller Hinton agar, 24 hrs at 35° C. The class given is cell-based. The method, then:
as §1

Assay [6] concerns Vancomycin resistant enterococci 303 (VRE 303). The assay is described as above. The class given is cell-based. Conditions: Enterococcus, Mueller Hinton agar, 24 hrs at 35° C. The method, then:
as §1

Values after ≈ are worked out from the molar mass of the structure shown.

The MIC is the lowest concentration that inhibits growth of the organism. Lower therefore signals greater potency. One may read the ED50 as the midpoint of the dose-response relation. High values mean weaker potency, low ones greater potency. `CC(=O)NC[C@H]1CN(c2ccc(N3CCC4(CC3)CC4C#N)cc2)C(=O)O1` (mixture of isomers) [Example 96, (1RS,5S)—N-{3-[4-(1-cyano-6-aza-spiro[2.5]oct-6-yl)-phenyl]-2-oxo-oxazolidin-5-ylmethyl}-acetamide]: the MIC in assay [1] worked out at 4 µg/mL; in assay [2], 4 µg/mL; in assay [4], 2 µg/mL; in assay [5], 4 µg/mL; in assay [6], 8 µg/mL. For the same compound, in assay [3], the ED50 came to 5 mg/kg.

`CC(=O)NC[C@H]1CN(c2ccc(N3CCC4(CC3)CC4C#N)c(F)c2)C(=O)O1` (mixture of isomers) [Example 97, (1RS,5S)—N-{3-[4-(1-cyano-6-aza-spiro[2.5]oct-6-yl)-3-fluorophenyl]-2-oxo-oxazolidin-5-ylmethyl}-acetamide]: the MIC in assay [1] came out at 2 µg/mL; in assay [2], 2 µg/mL; in assay [4] it was 1 µg/mL; in assay [5] it was 4 µg/mL; in assay [6], 2 µg/mL. For the same compound, the 50% effect level in assay [3] (ED50) was put at a dose of 5 mg/kg.

With `CS(=O)(=O)NCC1CN(c2ccc(N3CCC(O)(CN=[N+]=[N-])CC3)c(F)c2)C(=O)O1` (stereo in doubt) [Example 40, (S)—N-{3-[4-(4-Azidomethyl-4-hydroxypiperidin-1-yl)-3-fluorophenyl]-2-oxo-oxazolidin-5-ylmethyl}-methanesulfonamide], the MIC was more than 8 µg/mL in assay [1]; more than 8 µg/mL in assay [2]; 8 µg/mL (≈ 18.1 µM) in assay [4]; 8 µg/mL (≈ 18.1 µM) in assay [5]; more than 16 µg/mL in assay [6]. Besides, it took a dose of 10 mg/kg to reach the 50% effect level in assay [3] (ED50).

In the case of `CC(=O)NC[C@H]1CN(c2ccc(N3CCC(C)(F)CC3)c(F)c2)C(=O)O1` [Example 1, (S)—N-{3-[4-(4-Fluoro-4-methylpiperidin-1-yl)-3-fluorophenyl]-2-oxo-oxazolidin-5-ylmethyl}-acetamide], the MIC in assay [1] came to 2 µg/mL (≈ 5.44 µM); in assay [2], 2 µg/mL (≈ 5.44 µM); in assay [4], 2 µg/mL (≈ 5.44 µM); in assay [5] it was 4 µg/mL (≈ 10.9 µM); in assay [6] it was 4 µg/mL (≈ 10.9 µM). The compound also came in with an ED50 in assay [3] of 10 mg/kg.

Turning to `CC(=O)NC[C@H]1CN(c2ccc(N3CCC(F)(CC#N)CC3)c(F)c2)C(=O)O1` [Example 2, (S)—N-{3-[4-(4-Fluoro-4-cyanomethylpiperidin-1-yl)-3-fluorophenyl]-2-oxo-oxazolidin-5-ylmethyl}-acetamide], the minimal inhibitory concentration (MIC) in assay [1] came out at 1 µg/mL (≈ 2.55 µM); in assay [2], 0.5 µg/mL (≈ 1.27 µM); in assay [4], 0.5 µg/mL (≈ 1.27 µM); in assay [5], 1 µg/mL (≈ 2.55 µM); in assay [6], 1 µg/mL (≈ 2.55 µM). Further, in assay [3], it took a dose of 2.5 mg/kg to reach the 50% effect level (ED50).

Regarding `CC(=O)NC[C@H]1CN(c2ccc(N3CCC(F)(CN=[N+]=[N-])CC3)c(F)c2)C(=O)O1` [Example 4, (S)—N-{3-[4-(4-Fluoro-4-azidomethylpiperidin-1-yl)-3-fluorophenyl]-2-oxo-oxazolidin-5-ylmethyl}-acetamide], the MIC in assay [1] is 2 µg/mL (≈ 4.9 µM); in assay [2], 2 µg/mL (≈ 4.9 µM); in assay [4], 1 µg/mL (≈ 2.45 µM); in assay [5] it was 2 µg/mL (≈ 4.9 µM); in assay [6], 2 µg/mL (≈ 4.9 µM). The ED50 in assay [3] worked out at 10 mg/kg.

For the compound `CC(=O)NC[C@H]1CN(c2ccc(N3CCC4(CC3)C[S+]([O-])CCO4)c(F)c2)C(=O)O1` (stereo partly drawn) [Example 162, (S)—N-{3-[4-(1-oxa-4-sulfinyl-9-aza-spiro[5.5]undec-9-yl)-3-fluorophenyl]-2-oxo-oxazolidin-5-ylmethyl}-acetamide], the MIC in assay [1] amounted to 4 µg/mL (≈ 9.1 µM); in assay [2] it was 4 µg/mL (≈ 9.1 µM); in assay [5], 8 µg/mL (≈ 18.2 µM). Moreover, the 50% effect level in assay [3] (ED50) was put at a dose of 10 mg/kg.

In assay [3], `COCC1(O)CCN(c2ccc(N3C[C@H](CNC(C)=O)OC3=O)cc2)CC1` [Example 177, (S)—N-{3-[4-(4-methoxymethyl-4-hydroxy-piperidin-1-yl)-phenyl]-2-oxo-oxazolidin-5-ylmethyl}-acetamide] came in with an ED50 of 10 mg/kg. The MIC in assay [4] was 4 µg/mL (≈ 10.6 µM); in assay [5], 8 µg/mL (≈ 21.2 µM); in assay [6] it was 8 µg/mL (≈ 21.2 µM).
